Tested on: c-Myc
Test: c-Myc immunofluorescence assay
Type: cell-based, human
Conditions: A549 cells, 24 hours, anti-c-Myc immunofluorescence
Procedure, shortened: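 Read-out is imaged c-Myc immunofluorescence, nucleus-segmented, in A549 lung carcinoma cells exposed to compound dose series for 24 h after 48 h growth. Fixation 4% paraformaldehyde, Triton permeabilization, antibody staining at room temperature; EC50 from logistic fit of signal versus concentration.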

Row | SMILES | Myc Efficacy (−LogEC50)
1 | COc1ccc(-c2noc(N3CCC(C(=O)NCC4CCN(C5CCOCC5)C4)CC3)n2)cc1 (stereo not drawn) [Compound 398, 1-(3-(4-methoxyphenyl)-1,2,4-oxadiazol-5-yl)-N-((1-(tetrahydro-2H-pyran-4-yl)pyrrolidin-3-yl)methyl)piperidine-4-carboxamide] | + (+ >3 and <5)
2 | COc1ccc(-c2noc(N3CCN(C(=O)N4CCN(C(C)=O)CC4)CC3)n2)cc1 [Compound 225, 1-(4-(4-(3-(4-methoxyphenyl)-1,2,4-oxadiazol-5-yl)piperazine-1-carbonyl)piperazin-1-yl)ethan-1-one] | − (− ≤3)
3 | COc1ccc(-c2noc(N3CCC(C(=O)NCc4cnc(C(F)(F)F)s4)CC3)n2)cc1 [Compound 318, 1-(3-(4-methoxyphenyl)-1,2,4-oxadiazol-5-yl)-N-((2-(trifluoromethyl)thiazol-5-yl)methyl)piperidine-4-carboxamide] | + (+ >3 and <5)
4 | COc1ccc(-c2noc(N3CCC(C(=O)NCC4CCc5ccccc5O4)CC3)n2)cc1 (stereo not drawn) [Compound 278, N-(chroman-2-ylmethyl)-1-(3-(4-methoxyphenyl)-1,2,4-oxadiazol-5-yl)piperidine-4-carboxamide] | + (+ >3 and <5)
5 | COc1ccc(-c2noc(N3CCC(C(=O)NC[C@H]4CCN(CC5CCN(C)CC5)C4)CC3)n2)cc1 [Compound 433, (R)-1-(3-(4-methoxyphenyl)-1,2,4-oxadiazol-5-yl)-N-((1-((1-methylpiperidin-4-yl)methyl)pyrrolidin-3-yl)methyl)piperidine-4-carboxamide] | + (+ >3 and <5)
6 | COc1ccc(-c2noc(N3CCN(c4nc5ccccc5[nH]4)CC3)n2)cc1 [Compound 235, 5-(4-(1H-benzo[d]imidazol-2-yl)piperazin-1-yl)-3-(4-methoxyphenyl)-1,2,4-oxadiazole] | + (+ >3 and <5)
7 | COc1ccc(-c2noc(N3CCC(C(=O)NCCCN4CCN(C)CC4)CC3)n2)cc1 [Compound 117, 1-(3-(4-methoxyphenyl)-1,2,4-oxadiazol-5-yl)-N-(3-(4-methylpiperazin-1-yl)propyl)piperidine-4-carboxamide] | + (+ >3 and <5)
8 | Cc1ccc(CN2CCC(CNC(=O)C3CCN(c4nc(-c5ccccc5Cl)no4)CC3)C2)cc1 (stereo not drawn) [Compound 156, 1-(3-(2-chlorophenyl)-1,2,4-oxadiazol-5-yl)-N-((1-(4-methylbenzyl)pyrrolidin-3-yl)methyl)piperidine-4-carboxamide] | + (+ >3 and <5)
9 | COc1ccc(-c2noc(N3CCNCC3)n2)cc1 [Compound 138, 3-(4-methoxyphenyl)-5-(piperazin-1-yl)-1,2,4-oxadiazole] | + (+ >3 and <5)
10 | COc1ccc(-c2noc(N3CCN(C(=O)NCCCN4CCC(Oc5ccccc5)CC4)CC3)n2)cc1 [Compound 245, 4-(3-(4-methoxyphenyl)-1,2,4-oxadiazol-5-yl)-N-(3-(4-phenoxypiperidin-1-yl)propyl)piperazine-1-carboxamide] | +++ (+++ ≥6)
11 | COc1ccc(-c2noc(N3CCC(C(=O)NCC4CCN(CC5CCOC5)C4)CC3)n2)cc1 (stereo not drawn) [Compound 347, 1-(3-(4-methoxyphenyl)-1,2,4-oxadiazol-5-yl)-N-((1-((tetrahydrofuran-3-yl)methyl)pyrrolidin-3-yl)methyl)piperidine-4-carboxamide] | + (+ >3 and <5)
12 | COc1ccc(-c2noc(N3CCC(C(=O)NCC4CCN(CC5=CCCCC5)C4)CC3)n2)cc1 (stereo not drawn) [Compound 409, N-((1-(cyclohex-1-en-1-ylmethyl)pyrrolidin-3-yl)methyl)-1-(3-(4-methoxyphenyl)-1,2,4-oxadiazol-5-yl)piperidine-4-carboxamide] | ++ (++ ≥5 and <6)

Source: US12344600B2, “c-Myc mRNA translation modulators and uses thereof in the treatment of cancer” (Anima Biotech Inc., priority 2022, dated 2025)
